For this data set, the system named is patients with confirmed endometriosis. Description: Weekly 3 mg Cetrorelix for 8 weeks in patients with confirmed endometriosis. Type of data set: in vivo, human. The conditions noted are these: 3 mg weekly for 8 weeks.

Non-standard residues stand in square brackets, D forms with d. Residues, ends and D or L forms follow the SMILES beside them. dPhe(4-Cl) = N[C@H](Cc1ccc(Cl)cc1)C(=O)O; d2Nal = N[C@H](Cc1ccc2ccccc2c1)C(=O)O; dCit = NC(=O)NCCC[C@@H](N)C(=O)O; d3Pal = N[C@H](Cc1cccnc1)C(=O)O

For `CC(=O)N[C@H](Cc1ccc2ccccc2c1)C(=O)N[C@H](Cc1ccc(Cl)cc1)C(=O)N[C@H](Cc1cccnc1)C(=O)N[C@@H](CO)C(=O)N[C@@H](Cc1ccc(O)cc1)C(=O)N[C@H](CCCNC(N)=O)C(=O)N[C@@H](CC(C)C)C(=O)N[C@@H](CCCNC(=N)N)C(=O)N1CCC[C@H]1C(=O)N[C@H](C)C(N)=O` [Cetrorelix acetate] (Ac-[d2Nal][dPhe(4-Cl)][d3Pal]SY[dCit]LRP[dA]-NH2), the “hot flushes or other hormonal (estradiol) withdrawal symptoms” value is given as “avoiding any hot flushes or other withdrawal symptoms” and the “proliferation of the endometrium at the end of treatment (histological biopsies)” value is recorded as “no proliferation of the endometrium”. Also, where the note is “listed as Cetrorelix”, the “hot flushes or other hormonal (estradiol) withdrawal symptoms” value is given as “without any signs of estradiol withdrawal symptoms” and the “proliferation of the endometrium at the end of treatment (histological biopsies)” value was “without proliferation of the endometrium”.

The values are drawn from patent US20080255053A1, “METHOD FOR THE THERAPEUTIC MANAGEMENT OF ENDOMETRIOSIS” (Aeterna Zentaris GmbH, priority 1999, published 2008).
